Test results from patent US7728036B2, “Methods for delivery of catecholic butanes for treatment of tumors” (priority 2003, dated 2010).

Key:
[1] = system: LNCaP prostate carcinoma cells; assay: Xenograft assay of human tumors in athymic nude mice, LNCaP; format: in vivo, mouse
Text: Xenograft Assay of Human Tumors.
Control mice received vehicle only.

[2] = Tissue distribution after short-term oral feeding of M4N (HPLC); format: in vivo, mice
Experimental: Tissue Distribution and Toxicity Analysis Following Short-Term and Long-Term Oral Feeding. For short-term feeding experiments, 30 mg of M4N dissolved in 300 μL castor oil was orally administered to each of 6 mice. At 2 h, 4 h, and 8 h post-administration time points, 2 mice were sacrificed, the organs and blood were collected, and the M4N extracted and quantitated as described below. In long-term feeding experiments, mice were fed food balls consisting of M4N dissolved in corn oil and Basal Mix (Harlan Teklad; Madison, Wis.; Cat. # TD 02273) for 14 weeks. Food balls weighed 9 g and contained 242 mg M4N each. Two mice, one male and one female, were reserved for long-term drug retention studies; and fourteen mice, both male and female, were used for long-term drug toxicity studies. At the end of feeding, mice were sacrificed, the organs and blood were collected, and the M4N extracted and quantitated as described below.
M4N Extraction and HPLC Analysis Following Oral Feeding. Organs and blood were harvested from M4N-fed mice, then frozen overnight at −80° C. Prior to freezing, gastro-intestinal organs (stomach, small intestine, colon) were cut open longitudinally and washed thoroughly with PBS to remove any contents. The following day, organs were cut into small pieces on dry ice with a razor blade, dried in a Speed-vac, then crushed into a rough powder using a mortar and pestle. Samples were extracted overnight in 100% ethanol with shaking. Samples were centrifuged and the supernatant collected. Pellets were extracted two more times in 100% ethanol overnight with shaking. The pooled ethanol extracts were evaporated on bench top for several days, then re-extracted with ethyl acetate, and dried completely in a Speed-vac. The dried samples were then analyzed quantitatively by HPLC and M4N was identified by mass spectroscopy using pure M4N as a standard.
In samples from short-term fed mice, dialysis was performed to further purify M4N from the tissue extracts. Dried ethanol extracts were redissolved in 1.5 mL 100% EtOH and centrifuged for 5 min. The supernatant was collected and the pellet was resuspended in 0.4 mL ethanol and centrifuged again. The supernatant was pooled with the previous supernatant, then dialyzed overnight against 150 mL 100% EtOH. The dialysates were dried on bench top and in a speed-vac, then analyzed by HPLC.
HPLC Quantitation of M4N. Samples from a single mouse at each time point were sent to KP Pharmaceuticals (Bloomington, Ind.) for HPLC analysis. HPLC conditions were described as follows: 35%:0.1% TFA in H2O, 65%=“CAN.” The M4N standard was prepared by diluting 10.01 mg M4N in 100 mL of CAN, then sonicating for 5 min. (2002 ng/injection). The samples were prepared by adding 400 μL EtOH and sonicating for 2 min. or until complete dissolution was achieved. The injection volume for the samples was 100 μL.
The convenience and ease of oral administration, however, especially in the case of long-term post-surgical adjuvant treatment, would considerably facilitate drug administration to patients and would improve patient quality of life. Thus, in addition to i.p. and i.v. administration, the ability to systemically distribute M4N by oral administration was also investigated. In both short-term (<8 hours) feeding experiments and long-term (14 weeks) feeding experiments, M4N levels in various tissues and their in vivo toxicity was assessed. In short-term experiments, mice were fed 30 mg of M4N dissolved in castor oil (100 mg M4N/mL castor oil), and at 2, 4, and 8 hours post-feeding, the quantity of M4N present in various tissues was determined by HPLC.

[3] = system: refractory head and neck carcinomas; format: in vivo, human
Text: Eight male subjects and one […] participated. Mean weight was 139 lbs. (range 102 to 219 lbs.).

[4] = Toxicokinetic analysis of M4N serum concentration in beagle dogs; conditions: dog, in vivo
Experimental: Blood samples from the CET group animals were collected via the jugular vein on Study Day (SD) 1, SD 3, SD 6, and SD 8 at the following timepoints: predose, 0.25, 0.5, 1, 2, 4, 8, and 16 hours following the completion of the approximate 4-hour infusion.
Blood samples from the DMSO group animals were collected via the cephalic vein on SD 1, SD 3, SD 6, and SD 8 at the following timepoints: predose, 0.25, 0.5, 1, 2, 4, 8, and 16 hours following the final injection dose of M4N-DMSO.
Blood samples collected from both groups of animals were processed for plasma and serum for TK analysis.
The plasma and serum samples were sent to MedTox Laboratories, the Sponsor's designated laboratory for TK analysis. TK analysis of M4N plasma and serum concentration-time data was performed using a validated method (M200406) by MedTox Laboratories and analyzed by noncompartmental methods to obtain estimates of toxicokinetic parameters (where data allow), but not necessarily limited to, Cmax, Tmax and AUC.

[5] = LNCaP, of 11 M4N-treated tumors, 21 days i.p. treatment

COc1ccc(C[C@@H](C)[C@@H](C)Cc2ccc(OC)c(OC)c2)cc1OC [M4N, meso-1,4-bis(3,4-dimethoxyphenyl)-2,3-dimethylbutane]
Tumor Volume Increase (%) - 21 Days Treatment, M4N-Treatment ([1]; LNCaP xenograft, 2 mg M4N i.p. daily for 3 weeks): 25% | Ratio of Mean M4N-Treated Tumor Size to Control Tumor Size ([1]; LNCaP xenograft, 2 mg M4N i.p. daily, 21 days): 46.3% | Reduction in mean tumor volume versus control ([1]; LNCaP, after 21 days systemic M4N treatment): 53% | DOTV: number of tumors with decrease in volume from the original tumor volume [1, 5]: 9 | IOTV: number of tumors with increase in volume from the original tumor volume [1, 5]: 2 | Growth of LNCaP xenograft tumors ([1]; systemic oral administration of M4N): effectively suppresses the growth | Quantity of M4N in each tissue ([2]; 2 hours post-feeding, 30 mg oral): < 2 ng per gram tissue | M4N levels ([2]; 8 hours post-feeding): decreased in nearly all organs | M4N (ng)/organ dry weight (g) ([2]; Bladder, 2 hours after oral 30 mg M4N in castor oil): 2.34 ng/g | M4N (ng)/organ dry weight (g) ([2]; Bladder, 4 hours after oral 30 mg M4N in castor oil): 1.69 ng/g | M4N (ng)/organ dry weight (g) ([2]; Bladder, 8 hours after oral 30 mg M4N in castor oil): 0 ng/g | M4N (ng)/organ dry weight (g) ([2]; Blood, 2 hours after oral 30 mg M4N in castor oil): 0.5 ng/g | M4N (ng)/organ dry weight (g) ([2]; Blood, 4 hours after oral 30 mg M4N in castor oil): 2.08 ng/g | M4N (ng)/organ dry weight (g) ([2]; Blood, 8 hours after oral 30 mg M4N in castor oil): 0 ng/g | M4N (ng)/organ dry weight (g) ([2]; Caecum, 2 hours after oral 30 mg M4N in castor oil): 1.11 ng/g | M4N (ng)/organ dry weight (g) ([2]; Caecum, 4 hours after oral 30 mg M4N in castor oil): 4.38 ng/g | M4N (ng)/organ dry weight (g) ([2]; Caecum, 8 hours after oral 30 mg M4N in castor oil): 6.55 ng/g | M4N (ng)/organ dry weight (g) ([2]; Fat, 2 hours after oral 30 mg M4N in castor oil): 0.11 ng/g | M4N (ng)/organ dry weight (g) ([2]; Fat, 4 hours after oral 30 mg M4N in castor oil): 0 ng/g | M4N (ng)/organ dry weight (g) ([2]; Fat, 8 hours after oral 30 mg M4N in castor oil): 0 ng/g | M4N (ng)/organ dry weight (g) ([2]; Heart, 2 hours after oral 30 mg M4N in castor oil): 0.83 ng/g | M4N (ng)/organ dry weight (g) ([2]; Heart, 4 hours after oral 30 mg M4N in castor oil): 0.11 ng/g | M4N (ng)/organ dry weight (g) ([2]; Heart, 8 hours after oral 30 mg M4N in castor oil): 1.16 ng/g | M4N (ng)/organ dry weight (g) ([2]; Kidneys, 2 hours after oral 30 mg M4N in castor oil): 0.12 ng/g | M4N (ng)/organ dry weight (g) ([2]; Kidneys, 4 hours after oral 30 mg M4N in castor oil): 0.61 ng/g | M4N (ng)/organ dry weight (g) ([2]; Kidneys, 8 hours after oral 30 mg M4N in castor oil): 0 ng/g | M4N (ng)/organ dry weight (g) ([2]; Lg. Intestine, 2 hours after oral 30 mg M4N in castor oil): 0.24 ng/g | M4N (ng)/organ dry weight (g) ([2]; Lg. Intestine, 4 hours after oral 30 mg M4N in castor oil): 8.24 ng/g | M4N (ng)/organ dry weight (g) ([2]; Lg. Intestine, 8 hours after oral 30 mg M4N in castor oil): 2.68 ng/g | M4N (ng)/organ dry weight (g) ([2]; Liver, 2 hours after oral 30 mg M4N in castor oil): 0.05 ng/g | M4N (ng)/organ dry weight (g) ([2]; Liver, 4 hours after oral 30 mg M4N in castor oil): 0.52 ng/g | M4N (ng)/organ dry weight (g) ([2]; Liver, 8 hours after oral 30 mg M4N in castor oil): 0 ng/g | M4N (ng)/organ dry weight (g) ([2]; Lungs, 2 hours after oral 30 mg M4N in castor oil): 0.43 ng/g | M4N (ng)/organ dry weight (g) ([2]; Lungs, 4 hours after oral 30 mg M4N in castor oil): 0 ng/g | M4N (ng)/organ dry weight (g) ([2]; Lungs, 8 hours after oral 30 mg M4N in castor oil): 2.7 ng/g | M4N (ng)/organ dry weight (g) ([2]; Pancreas, 2 hours after oral 30 mg M4N in castor oil): 0.57 ng/g | M4N (ng)/organ dry weight (g) ([2]; Pancreas, 4 hours after oral 30 mg M4N in castor oil): 24.69 ng/g | M4N (ng)/organ dry weight (g) ([2]; Pancreas, 8 hours after oral 30 mg M4N in castor oil): 2.97 ng/g | M4N (ng)/organ dry weight (g) ([2]; Seminal Vesicles, 2 hours after oral 30 mg M4N in castor oil): 0.21 ng/g | M4N (ng)/organ dry weight (g) ([2]; Seminal Vesicles, 4 hours after oral 30 mg M4N in castor oil): 0.37 ng/g | M4N (ng)/organ dry weight (g) ([2]; Seminal Vesicles, 8 hours after oral 30 mg M4N in castor oil): 0 ng/g | M4N (ng)/organ dry weight (g) ([2]; Small Intestine, 2 hours after oral 30 mg M4N in castor oil): 0.09 ng/g | M4N (ng)/organ dry weight (g) ([2]; Small Intestine, 4 hours after oral 30 mg M4N in castor oil): 8.42 ng/g | M4N (ng)/organ dry weight (g) ([2]; Small Intestine, 8 hours after oral 30 mg M4N in castor oil): 5.53 ng/g | M4N (ng)/organ dry weight (g) ([2]; Spleen, 2 hours after oral 30 mg M4N in castor oil): 1.1 ng/g | M4N (ng)/organ dry weight (g) ([2]; Spleen, 4 hours after oral 30 mg M4N in castor oil): 0.16 ng/g | M4N (ng)/organ dry weight (g) ([2]; Spleen, 8 hours after oral 30 mg M4N in castor oil): 0 ng/g | M4N (ng)/organ dry weight (g) ([2]; Stomach, 2 hours after oral 30 mg M4N in castor oil): 0.23 ng/g | M4N (ng)/organ dry weight (g) ([2]; Stomach, 4 hours after oral 30 mg M4N in castor oil): 45.03 ng/g | M4N (ng)/organ dry weight (g) ([2]; Stomach, 8 hours after oral 30 mg M4N in castor oil): 33.9 ng/g | M4N present in tissue ([2]; pancreas, 4 hours post-feeding): Significant quantities | Time of peak M4N levels ([2]; post-feeding, single oral 30 mg): roughly 4 hours | Damage to healthy tissue surrounding the tumor ([3]; in vivo): No damage | Dose delivered without drug-related toxicity ([3]; in vivo): up to 495 mg weekly | Other adverse events attributed to M4N ([3]; in vivo): No other adverse events | Relation of SAEs to study medication ([3]; in vivo): unlikely or not related to study medication | Serious Adverse Events reported ([3]; in vivo): 6 | Subjects with Serious Adverse Events ([3]; in vivo): 4 subjects | Subjects with severe radiating pain on injection ([3]; in vivo): One | Subjects with sporadic mild elevations in LFTs ([3]; in vivo): 2 subjects | Subjects with drug related tumor necrosis after injection ([3]; of 6 subjects receiving three doses): 5 subjects | Patients with radiologically confirmed tumor volume reduction ([3]; of the six patients completing three doses): three | Efficacy in terms of induction of necrosis ([3]; patients that completed the treatment): over 80% | Blood levels of M4N achieved with minimal toxicity [4]: up to 14,000 ng/ml
